Patent US12503473B2, “Triazolopyrimidine compounds and their use in treating cancer” (Dizal (Jiangsu) Pharmaceutical Co., Ltd., priority 2018, dated 2025)

What was measured:
[1] = target: T1, MCT1 (Homo sapiens, UniProt P53985); experiment: Assay (c): FLIPR BCECF lactate influx in K562 cells; type: cell-based; settings: mean of at least three repeats, read-out: MCT1 FLIPR pIC50 (K562) (converted)
T1 construct: a human erythroleukemia line predominantly expressing MCT1, a small amount of MCT2 and no MCT4; host or cells: K562
T1 sequence (P53985 1-500): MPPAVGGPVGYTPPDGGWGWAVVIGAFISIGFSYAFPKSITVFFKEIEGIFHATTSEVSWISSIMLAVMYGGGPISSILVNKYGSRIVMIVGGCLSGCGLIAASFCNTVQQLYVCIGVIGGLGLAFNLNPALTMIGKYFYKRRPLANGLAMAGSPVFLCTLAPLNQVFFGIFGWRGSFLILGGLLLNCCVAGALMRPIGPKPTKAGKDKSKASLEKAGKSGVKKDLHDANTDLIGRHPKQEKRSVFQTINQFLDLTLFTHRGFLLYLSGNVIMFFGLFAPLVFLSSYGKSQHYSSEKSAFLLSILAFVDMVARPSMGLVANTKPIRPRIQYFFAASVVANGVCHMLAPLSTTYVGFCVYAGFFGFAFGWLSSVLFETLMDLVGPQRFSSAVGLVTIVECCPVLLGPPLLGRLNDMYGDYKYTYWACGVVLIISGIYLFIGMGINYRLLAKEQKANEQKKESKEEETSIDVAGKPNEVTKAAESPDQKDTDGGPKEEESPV
Description: (§1) Cells were loaded with the pH sensitive dye BCECFAM(Invitrogen #B11150) before being washed to remove excess dye and seeded into the assay plates—directly onto the test compound—at a density of 15,000 cells/well (NCI—H358) or 30,000 cells/well (K562), in 30 μl HBSS with 1 mM [final] […] Assay plates were lidded and spun in a plate centrifuge at 170 g for 1 minute. Plates were then wrapped in foil and incubated in the dark for 1 hour at room temperature.
(§2) Following incubation with test compound, 10 μl of 25 mM Sodium-L-Lactate (Sigma #L7022) made up in HBSS with 1 mM [final] […] This addition was performed directly on the FLIPR Tetra platform (Molecular Devices) as part of a real-time kinetic read protocol. […] A percentage change from base-line was calculated for each test well and values normalised to control wells—treated with either DMSO (maximum assay signal) or chemistry related to that described in this patent (minimum assay signal)—before fitting concentration response curves to determine an IC50 value.

[2] = target: T2, MCT4 (Homo sapiens, UniProt O15427); experiment: cell-based
T2 sequence (O15427 1-465): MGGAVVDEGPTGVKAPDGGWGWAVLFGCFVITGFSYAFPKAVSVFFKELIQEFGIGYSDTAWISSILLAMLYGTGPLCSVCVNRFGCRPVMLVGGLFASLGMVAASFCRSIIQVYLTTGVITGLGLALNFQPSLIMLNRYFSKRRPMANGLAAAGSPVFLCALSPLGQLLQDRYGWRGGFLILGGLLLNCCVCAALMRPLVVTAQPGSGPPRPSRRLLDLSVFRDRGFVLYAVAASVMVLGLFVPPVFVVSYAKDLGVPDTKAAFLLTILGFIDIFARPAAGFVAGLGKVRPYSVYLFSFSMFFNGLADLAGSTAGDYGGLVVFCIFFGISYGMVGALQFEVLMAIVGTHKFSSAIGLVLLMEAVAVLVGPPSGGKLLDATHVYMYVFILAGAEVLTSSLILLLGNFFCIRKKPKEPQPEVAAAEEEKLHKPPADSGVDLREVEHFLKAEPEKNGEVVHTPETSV
Description: as §1, §2

[3] = target: T2, MCT4; experiment: Assay (d): FLIPR BCECF lactate influx in INS-1 MCT4 cells; type: cell-based, rat; design: expressed in transfected cells; settings: INS-1 cells stably expressing human MCT4; mean of at least three repeats; read-out: MCT4 FLIPR pIC50 (INS-1) (converted)
Description: INS-1 MCT4 cells were generated through transfection of the parental cell background with the following DNA sequence, inserted into a pcDNA3.1 (ThermoFisher #V79020) mammalian expression vector:
The resultant cell pool was continually cultured at 37° C. and 5% CO2 under antibiotic selection in RPMI (Sigma #R0883) medium containing 1% L glutamine (Sigma #G7513), 10% FBS (Sigma #F7524), 10 mM [final] […] An individual clone was selected and expanded before being cryopreserved in a number of individual vials for continued use. Prior to testing in the biological assay, an individual INS-1 MCT4 cryovial was defrosted and continually passaged over a number of weeks—in the Geneticin selection media described previously—to obtain the requesite cell number.

[4] = target: T2, MCT4; experiment: Assay (a): lactate efflux from SK-Br-3 cells (lactate in media, 4 h); type: cell-based; design: a natively glycolytic human breast adenocarcinoma line predominantly expressing MCT4; host or cells: SK-Br-3; settings: mean of at least three repeats (Example 32, marked *, two repeats), read-out: MCT4 lactate efflux pIC50 (SKBR3) (converted)
Description: Assay plates were lidded and incubated for 4 hours at 37° C. and 5% CO2.

| SMILES | IC50 [1] [nM] | IC50 [2] [nM] | IC50 [3] [nM] | IC50 [4] [nM] |
| --- | --- | --- | --- | --- |
| Cc1nc2nc(C)c(O[C@@H]3CCN(c4ccc(-c5ccc(CN6CCCOCC6)nn5)cc4)C3)c(C)n2n1 [Example 84, (R)-4-((6-(4-(3-((2,5,7-trimethyl-[1,2,4]triazolo[1,5-a]pyrimidin-6-yl)oxy)pyrrolidin-1-yl)phenyl)pyridazin-3-yl)methyl)-1,4-oxazepane] | > 25100 | 7.94 | 3.98 | 1 |
| Cc1nc2nc(C)c(C[C@@H]3CCN(c4cnc(-c5ccc(CN6CCCC6)cn5)cn4)C3)c(C)n2n1 [Example 81, (R)-2,5,7-trimethyl-6-((1-(5-(5-(pyrrolidin-1-ylmethyl)pyridin-2-yl)pyrazin-2-yl)pyrrolidin-3-yl)methyl)-[1,2,4]triazolo[1,5-a]pyrimidine] | 5010 | 15.8 | 3.16 | 3.16 |
| Cc1nc2nc(C)c(O[C@@H]3CCN(c4ccc(-c5ccc(CN6CCCCCC6)nn5)cc4)C3)c(C)n2n1 [Example 85, (R)-6-((1-(4-(6-(azepan-1-ylmethyl)pyridazin-3-yl)phenyl)pyrrolidin-3-yl)oxy)-2,5,7-trimethyl-[1,2,4]triazolo[1,5-a]pyrimidine] | > 25100 | 20 | 6.31 | 1.26 |
| COCCN1CCN(Cc2ccc(-c3ccc(N4CC[C@@H](Oc5c(C)nc6nc(C)nn6c5C)C4)cc3)nn2)CC1 [Example 73, (R)-6-((1-(4-(6-((4-(2-methoxyethyl)piperazin-1-yl)methyl)pyridazin-3-yl)phenyl)pyrrolidin-3-yl)oxy)-2,5,7-trimethyl-[1,2,4]triazolo[1,5-a]pyrimidine] | > 25100 | 50.1 | 31.6 | 3.16 |
| COCCN1CCN(Cc2ccc(-c3cnc(N4CC[C@@H](Cc5c(C)nc6nc(C)nn6c5C)C4)cn3)cc2)CC1 [Example 42, (R)-6-((1-(5-(4-((4-(2-methoxyethyl)piperazin-1-yl)methyl)phenyl)pyrazin-2-yl)pyrrolidin-3-yl)methyl)-2,5,7-trimethyl-[1,2,4]triazolo[1,5-a]pyrimidine] | > 25100 | 10 | 6.31 | 0.794 |
| Cc1nc2nc(C)c(O[C@@H]3CCN(c4cnc(-c5ccc([C@@H](C)N6CCOCC6)cc5)cn4)C3)c(C)n2n1 (single isomer, unassigned) [Example 86] | > 25100 | 12.6 | 3.16 | 2.51 |
| Cc1nc2nc(C)c(O[C@@H]3CCN(c4ccc(-c5ccc(CN6CCCCC6)nn5)cc4)C3)c(C)n2n1 [Example 64, (R)-2,5,7-trimethyl-6-((1-(4-(6-(piperidin-1-ylmethyl)pyridazin-3-yl)phenyl)pyrrolidin-3-yl)oxy)-[1,2,4]triazolo[1,5-a]pyrimidine] | > 25100 | 50.1 | 15.8 | 1.58 |
| Cc1nc2nc(C)c(C[C@@H]3CCN(c4ccc(-c5ccc(CN6CCOCC6)nn5)nc4)C3)c(C)n2n1 [Example 9, (R)-4-((6-(5-(3-((2,5,7-trimethyl-[1,2,4]triazolo[1,5-a]pyrimidin-6-yl)methyl)pyrrolidin-1-yl)pyridin-2-yl)pyridazin-3-yl)methyl)morpholine] | > 20000 | 15.8 | – | 0.501 |
| Cc1nc2nc(C)c(O[C@@H]3CCN(c4ccc(-c5cnc(CN6CCOCC6)nc5)cc4)C3)c(C)n2n1 [Example 69, (R)-4-((5-(4-(3-((2,5,7-trimethyl-[1,2,4]triazolo[1,5-a]pyrimidin-6-yl)oxy)pyrrolidin-1-yl)phenyl)pyrimidin-2-yl)methyl)morpholine] | > 25100 | 12.6 | 3.16 | 2 |
| CCN1CCN(Cc2ccc(-c3ccc(N4CC[C@@H](Oc5c(C)nc6nc(C)nn6c5C)C4)cc3)nn2)CC1 [Example 72, (R)-6-((1-(4-(6-((4-ethylpiperazin-1-yl)methyl)pyridazin-3-yl)phenyl)pyrrolidin-3-yl)oxy)-2,5,7-trimethyl-[1,2,4]triazolo[1,5-a]pyrimidine] | > 25100 | 79.4 | – | 2.51 |
| Cc1nc2nc(C)c(O[C@@H]3CCN(c4ccc(-c5ccc(CN6CCOCC6)cn5)cn4)C3)c(C)n2n1 [Example 74, (R)-4-((6′-(3-((2,5,7-trimethyl-[1,2,4]triazolo[1,5-a]pyrimidin-6-yl)oxy)pyrrolidin-1-yl)-[2,3′-bipyridin]-5-yl)methyl)morpholine] | > 25100 | 10 | 2 | 2 |
| Cc1nc2nc(C)c(O[C@@H]3CCN(c4ccc(-c5ccc(CN6CCOCC6)nc5)cn4)C3)c(C)n2n1 [Example 75, (R)-4-((6′-(3-((2,5,7-trimethyl-[1,2,4]triazolo[1,5-a]pyrimidin-6-yl)oxy)pyrrolidin-1-yl)-[3,3′-bipyridin]-6-yl)methyl)morpholine] | > 25100 | 12.6 | 3.16 | 3.16 |
| Cc1nc2nc(C)c(O[C@@H]3CCN(c4cnc(-c5ccc(C(C)N6CCOCC6)cc5)cn4)C3)c(C)n2n1 (single isomer, unassigned) [Example 87] | > 25100 | 12.6 | 3.98 | 1.26 |
| Cc1nc2nc(C)c(O[C@@H]3CCN(c4ccc(-c5ccc(CN6CCN7CCC[C@@H]7C6)nn5)cc4)C3)c(C)n2n1 [Example 67, 6-(((R)-1-(4-(6-(((R)-hexahydropyrrolo[1,2-a]pyrazin-2(1H)-yl)methyl)pyridazin-3-yl)phenyl)pyrrolidin-3-yl)oxy)-2,5,7-trimethyl-[1,2,4]triazolo[1,5-a]pyrimidine] | > 25100 | 63.1 | – | 2 |
| Cc1nc2nc(C)c(O[C@@H]3CCN(c4ccc(-c5cnc(CN6CCOCC6)cn5)cc4)C3)c(C)n2n1 [Example 70, (R)-4-((5-(4-(3-((2,5,7-trimethyl-[1,2,4]triazolo[1,5-a]pyrimidin-6-yl)oxy)pyrrolidin-1-yl)phenyl)pyrazin-2-yl)methyl)morpholine] | > 25100 | 5.01 | 1.58 | 0.631 |
| Cc1nc2nc(C)c(C[C@@H]3CCN(c4cnc(-c5ccc(CN6CCN(C)C[C@@H]6C)cc5)cn4)C3)c(C)n2n1 [Example 50, 6-(((R)-1-(5-(4-(((S)-2,4-dimethylpiperazin-1-yl)methyl)phenyl)pyrazin-2-yl)pyrrolidin-3-yl)methyl)-2,5,7-trimethyl-[1,2,4]triazolo[1,5-a]pyrimidine] | > 25100 | 15.8 | – | 0.501 |
| Cc1nc2nc(C)c(C[C@@H]3CCN(c4cnc(-c5ccc(CN6CCOCC6)cc5)cn4)C3)c(C)n2n1 [Example 60, (R)-4-(4-(5-(3-((2,5,7-trimethyl-[1,2,4]triazolo[1,5-a]pyrimidin-6-yl)methyl)pyrrolidin-1-yl)pyrazin-2-yl)benzyl)morpholine] | 12600 | 7.94 | 5.01 | 0.398 |
| Cc1nc2nc(C)c(O[C@@H]3CCN(c4ccc(-c5ccc(CN6C7CCC6CN(C)C7)nn5)cc4)C3)c(C)n2n1 [Example 66, 2,5,7-trimethyl-6-(((3R)-1-(4-(6-((3-methyl-3,8-diazabicyclo[3.2.1]octan-8-yl)methyl)pyridazin-3-yl)phenyl)pyrrolidin-3-yl)oxy)-[1,2,4]triazolo[1,5-a]pyrimidine] | > 25100 | 50.1 | 25.1 | 2 |
